≈ marks a conversion by molar mass, not a printed value. Like-named read-outs stand apart in the source and are kept apart here.
Key:
mouse L cells [1] = test: Reversal of Cytotoxic Activity on mouse L cells
[2] = system: lymphocytic leukemia P388/0; test: Lymphocytic Leukemia P388/0 Test (survival, mice); assay type: in vivo, CD2-F1 mice
Source text: A. Anti-neoplastic Activity Data for Lymohocytic Leukemia P388/0 Test
The tests employed for the evaluation of anti-neoplastic activity of the compounds of the present invention are essentially those used in the Tumor Panel of the Developmental Therapeutics Program, Division of Cancer Treatment, National Cancer Institute, A. Goldin, et al., Methods in Cancer Research, Vol. XVI, p. 165, Academic Press (1979). Some modifications, in dose level and schedule have been made to increase the testing efficiency.
CD2-F1 -mice, of the same sex, weighing within a 3 g range surrounding 20 g, are used for this test. Control and test animals are injected intraperitoneally with a suspension of […] viable P388/0 tumor cells on day 0. In each test, several dose levels which bracket the LD20 of the compound are evaluated; each dose level group contains six animals. The test compound is prepared either in physiologic saline containing 0.05% Tween 80 or distilled water containing 5% dextrose and is administered intraperitoneally on the indicated schedule relative to tumor implant. Doses are on a mg/kg basis according to individual animals' body weights. The day of death for each animal is recorded, the median identified for each group and the percent increase in life span (% ILS) is calculated from the ratio of survival time of treatment to control groups. The criterion for activity is % ILS greater than or equal to 20%.
The compound of the invention included in this test was the compound of Example 1, namely N-[4-[3-(2,4-diamino-1,6-dihydro-6-oxo-5-pyrimidinyl)propylamino]benzoyl]- L-glutamic acid and the results are as follows.

Streptococcus faecium = test: activity against Streptococcus faecium; assay type: cell-based; conditions: in words
D98 cells = test: Cell Culture Cytotoxicity Test, D98 cells; assay type: cell-based; conditions: Homo sapiens; 50 % of control; 70-76 hours of incubation; read-out: Concentration giving 50 % of Control, D-98 Cells
Method: (§1) B. Cell Culture Cytotoxicity Test Data
(§2) The two routine indicator cell lines used are (1.) D98, a twice-cloned derivative of Detroit 98s from American Type Culture Collection (ATCC) strain CCL 18.1, from human sternal bone marrow and (2.) L, a cloned derivative from NCTC 929 (ATCC CCL1,) a C3 H/An from mouse connective tissue. Inoculation densities for L and D98 cells are 1.0 and 1.5×10^5 cells, per cm^2, respectively. Control cells are grown in Eagle's MEM (Earle's salts, 10% horse serum, 100 units/ml potassium penicillin G and 100 μg/ml streptomycin) and should show at least two doublings during the test period. Test plates are seeded with similar quantities of cells and are grown in the same medium with test compounds added. Total "cell counts" are made with an electronic cell counter after 70-76 hours of incubation with one medium change at 20-26 hours. Dose response curves are prepared by plotting percent of control vs. concentration of compound.
(§3) The compounds of the invention included in this test and the results are as follows.

Lactobacillus casei = test: activity against Lactobacillus casei; assay type: cell-based; conditions: in words
yellow fever virus = conditions: in words
Spiroplasma citri = test: Activity Against Spiroplasma citri, Sensitivity Test; assay type: cell-based; conditions: for MIC: Spiroplasma citri, 48 h, 32° C., no color change or two day delay in color change; for activity against the mycoplasma, Spiroplasma citri: in words
Method: D. Data for Activity Against Spiroplasma citri, Sensitivity Test
Frozen broth cultures are diluted to a predetermined titre of 100 color changing units for the test. Organisms are grown in Difco PPLO broth base with added serum, glucose, phenol red, ampicillin, thallium acetate and yeast extract. Incubation is at 32° C. Incubation with varying levels of the test compound in the above medium are performed in well plates and an amount of Spiroplasma citri cells is added that will produce a color change by a fixed time of growth. The lowest concentration of compound that fails to produce a color change or gives a two day delay in color change indicates minimum inhibitory concentration.
The compounds of the invention included in this test and the results are as follows: […]

L cells = test: Cell Culture Cytotoxicity Test, L cells; assay type: cell-based; conditions: Mus musculus; 50 % of control; 70-76 hours of incubation; read-out: Concentration giving 50 % of Control, L-Cells
Method: as §1, §2, §3

[3] = colour change on extended exposure to light; assay type: physicochemical; conditions: white powder
mouse L cells [4] = system: mouse L cells

## NC(=O)c1ncn([C@@H]2O[C@H](COP(=O)(O)O)[C@@H](O)[C@H]2O)c1N [AICAR, 5-aminoimidazole-4-carboxamide ribonucleotide, reference compound]
Mouse L cells [1]; rescue agent against Example 3
  reversal of the cytotoxicity of the compound of Example 3: able to reverse the cytotoxicity

## Nc1nc(N)c(CCCNc2ccc(C(=O)N[C@@H](CCC(=O)O)C(=O)O)cc2)c(=O)[nH]1 [Example 1, N-[4-[3-(2,4-diamino-1,6-dihydro-6-oxo-5-pyrimidinyl)propylamino]benzoyl]-L-glutamic acid]
[2]; 2.5 mg/kg i.p., twice a day, on days 1, 2 and 3
  % Increased Life Span: +20%
[2]; 5 mg/kg i.p., every 4 hours for 3 doses on days 1-4
  % Increased Life Span: +22%
[2]; 5 mg/kg i.p., every hour for 8 doses on days 1 and 3
  % Increased Life Span: +60%
[2]; 5 mg/kg i.p., twice a day, on days 1, 2, and 3
  % Increased Life Span: +35%
[2]; 7.5 mg/kg i.p., twice a day, on days 1, 2 and 3
  % Increased Life Span: +40%
[2]; 10 mg/kg i.p., every 4 hours for 3 doses on days 1-4
  % Increased Life Span: +80%
[2]; 20 mg/kg i.p., every hour for 8 doses on days 1 and 3
  % Increased Life Span: +60%
[2]; 182 mg/kg i.p., day 1, 5, 9
  % Increased Life Span: +20%
Streptococcus faecium
  activity against Streptococcus faecium: activity
Mouse L cells [1]; Mus musculus, read-out: % of Control, compound alone, 2 × 10^-7 M (experiment with Ca leucovorin)
  activity at 0.2 µM: 36%
Mouse L cells [1]; Mus musculus, read-out: % of Control, compound alone, 2 × 10^-7 M (experiment with hypoxanthine)
  activity at 0.2 µM: 40%
D98 cells
  IC50: 110 nM
Lactobacillus casei
  activity against Lactobacillus casei: activity
Yellow fever virus
  activity against yellow fever virus: some activity
Spiroplasma citri
  MIC: 0.01 µM (≈ 0.00432 µg/mL)
  activity against the mycoplasma, Spiroplasma citri: activity
L cells
  IC50: 88 nM

## CN(CCCc1c(N)nc(N)[nH]c1=O)c1ccc(C(=O)N[C@@H](CCC(=O)O)C(=O)O)cc1 [Example 2, N-[4-[3-(2,4-diamino-1,6-dihydro-6-dihydro-6-oxo-5-pyrimidinyl)-N-methylpropylamino]benzoyl]-L-glutamic acid]
D98 cells
  IC50: 3000 nM
Spiroplasma citri
  MIC: 0.1 µM (≈ 0.0446 µg/mL)
  activity against the mycoplasma, Spiroplasma citri: activity
L cells
  IC50: 400 nM

## Nc1nc(N)c(CCCN(C=O)c2ccc(C(=O)N[C@@H](CCC(=O)O)C(=O)O)cc2)c(=O)[nH]1 [Example 3, N-[4-[3-(2,4-Diamino-1,6-dihydro-6-oxo-5-pyrimidinyl)-N-formylpropylamino]benzoyl]-L-glutamic acid]
Mouse L cells [1]; Mus musculus, read-out: % of Control, compound alone, 4 × 10^-8 M
  activity at 0.04 µM: 37%
D98 cells
  IC50: 210 nM
Yellow fever virus
  activity against yellow fever virus: some activity
Spiroplasma citri
  MIC: 0.1 µM (≈ 0.046 µg/mL)
  activity against the mycoplasma, Spiroplasma citri: activity
L cells
  IC50: 18 nM

## Nc1nc(N)c(CCNc2ccc(C(=O)N[C@@H](CCC(=O)O)C(=O)O)cc2)c(=O)[nH]1 [Example 4, N-[4-[2-(2,4-diamino-1,6-dihydro-6-oxo-5-pyrimidinyl)ethylamino]benzoyl]-L-glutamic acid]
D98 cells
  IC50: 700 nM
L cells
  IC50: 400 nM

## CN(CCc1c(N)nc(N)[nH]c1=O)c1ccc(C(=O)N[C@@H](CCC(=O)O)C(=O)O)cc1 [Example 5, N-[4-[2-(2,4-diamino-1,6-dihydro-6-oxo-5-pyrimidinyl)ethyl-N-methylamino]benzoyl]-L-glutamic acid]
D98 cells
  IC50: 7000 nM
[3]
  colour change upon extended exposure to light: became tan upon extended exposure to light
L cells
  IC50: 750 nM

## Nc1nc2c(c(=O)[nH]1)N(C=O)C(CNc1ccc(C(=O)N[C@@H](CCC(=O)O)C(=O)O)cc1)CN2 (stereo partly shown) [calcium leucovorin]
Mouse L cells [4]
  reversal of the cytotoxicity of the compound of Example 1: able to reverse the cytotoxicity
  reversal of the cytotoxicity of the compound of Example 3: able to reverse the cytotoxicity

## O=c1[nH]cnc2nc[nH]c12 [hypoxanthine]
Mouse L cells [4]
  reversal of the cytotoxicity of the compound of Example 1: able to reverse the cytotoxicity
  reversal of the cytotoxicity of the compound of Example 3: able to reverse the cytotoxicity
